Measurements: patent publication US10065988B2, “Peptoid affinity ligands” (Stefano Menegatti, priority 2013, dated 2018)
*1 amine or outer side, *2 acyl side, *3 side chain or, on linkers, in order; H or OH if unused. Where a SMILES comes first, the peptide text is derived from it. [ ]: non-standard residue; d: D form. Gly(N(CH2)2(3-indolyl)) = O=C(O)CNCCc1c[nH]c2ccccc12; Gly(N-(CH2)3-guanidino) = N=C(N)NCCCNCC(=O)O; X1 = O=C(CN(CCc1ncc[nH]1)[*:1])[*:2]; Gly(N(CH2)3NH2) = NCCCNCC(=O)O; N(iPr)Gly = CC(C)NCC(=O)O

Tested on: human IgG (hIgG)
Assay: Batch mode IgG binding to peptoid-functionalized Toyopearl AF-amino 650 M resin
Conditions: polyclonal hIgG 0.5 mg/mL in PBS, 2 mg hIgG per mL resin, 45 min at 22° C., elution 0.1 M glycine pH 2.5, ELISA and SDS-PAGE (FIG. 1, FIG. 2)
Source text: FIG. 1. Batch mode IgG adsorption to Toyopearl AF-amino 650 M resins functionalized with different peptoid ligands. IgG in the flow-through fractions (black) indicate the percent hIgG that was not adsorbed to the resin relative to the mass of hIgG loaded. The elution fractions (grey) indicate the percent of human IgG that was bound in phosphate buffered saline (PBS) and eluted (0.1 M glycine, pH 2.5) relative to the initial concentration of IgG that was loaded. Concentrations of hIgG in all fractions were determined by ELISA. The unmodified resin served as the negative control. Binding trials were done in duplicate for each resin.
FIG. 2. Reducing SDS-PAGE analysis of elution and flow-through fractions from hIgG adsorption experiments. Lanes designated “FT” and “Elute” are the flow-through and elution fractions, respectively. The lane marked “hIgG loaded” is the pre-adsorbed hIgG solution that was incubated with each resin tested. The heavy and light chains of hIgG migrate at ˜55 and ˜25 kDa, respectively, on reducing SDS-PAGE gels.
IgG Binding to Resin: The ability of the peptoid affinity ligands to bind human IgG (hIgG) was tested in batch mode. A 50% slurry of the resin was prepared, of which 200 μl (˜100 mg resin) was transferred into the spin column. The resin was throughly washed with dH2O and equilibrated with PBS prior to hIgG exposure. Polyclonal hIgG (Equitech-Bio) was diluted to 0.5 mg/mL with PBS. After equilibration, a 0.5 mg/mL solution of hIgG was added to the resin to achieve a ratio of 2 mg hIgG per mL of resin, and allowed to incubate for 45 min at 22° C. with vigorous shaking. After incubation, the resin was centrifuged at 500×g for 2 min in which the filtrate of this step was collected and labeled as “flow-through” fraction. The resin was subsequently washed 2× with PBS. Elution buffer (0.1 M glycine, pH 2.5) was added to the resin and mixed vigorously for 10 min at 22° C. After centrifugation (500×g for 2 min) bound hIgG was eluted from the resin and collected in the filtrate. The amount of hIgG found in the flow-through and elution fraction was determined using an ELISA-based quantitative assay (Bethyl, Cat. No. E80-104). hIgG yields were determined as the ratio of hIgG mass in the elution fraction and hIgG mass in the loading solution (FIG. 1). SDS-PAGE analysis of all collected fractions was carried out to determine product purity and evaluate the ligand selectivity (FIG. 2).

| ability of the peptoid affinity ligands to bind human IgG (hIgG) to the resin | Structure (SMILES) |
| --- | --- |
| useful for binding IgG to the resin | N=C(N)NCCCN(CC(=O)NCC(=O)O)C(=O)CN(CCc1c[nH]c2ccccc12)C(=O)CNCCc1ncc[nH]1 [Ligand G003] |
| useful for binding IgG to the resin | N=C(N)NCCCN(CC(=O)O)C(=O)CN(CCc1c[nH]c2ccccc12)C(=O)CNCCc1ncc[nH]1 [Ligand G005] |
| useful for binding IgG to the resin | CC(C)N(CC(=O)O)C(=O)CN(CCc1c[nH]c2ccccc12)C(=O)CNC(=O)CN(CCCN)C(=O)CN(CCc1c[nH]c2ccccc12)C(=O)CNCCc1ncc[nH]1 [Ligand G012] (H-[X1][Gly(N(CH2)2(3-indolyl))][Gly(N(CH2)3NH2)]G[Gly(N(CH2)2(3-indolyl))][N(iPr)Gly]-OH) |
| useful for binding IgG to the resin | CC(C)N(CC(=O)O)C(=O)CN(CCc1c[nH]c2ccccc12)C(=O)CNC(=O)CN(CCCNC(=N)N)C(=O)CN(CCc1c[nH]c2ccccc12)C(=O)CNCCc1ncc[nH]1 [Ligand G001] (H-[X1][Gly(N(CH2)2(3-indolyl))][Gly(N-(CH2)3-guanidino)]G[Gly(N(CH2)2(3-indolyl))][N(iPr)Gly]-OH) |
